The text below walks through data of ChEMBL document CHEMBL4342516, “Discovery of Membrane-Bound Pyrophosphatase Inhibitors Derived from an Isoxazole Fragment” (ACS Med Chem Lett, 2020).

One test deals with Thermotoga maritima. The test is described as follows: Inhibition of Thermotoga maritima membrane bound pyrophosphatase at 100 uM using sodium pyrophosphate as substrate preincubated for 5 mins followed by substrate addition and measured after 5 mins by spectrophotometry relative to control.
Test [1] can be described thus: Inhibition of Thermotoga maritima membrane bound pyrophosphatase at 100 uM using sodium pyrophosphate as substrate preincubated for 5 mins followed by substrate addition and measured after 5 mins by spectrophotometry.
In test [2] the test system is Plasmodium falciparum. The test is described as follows: (§1) Inhibition of Plasmodium falciparum 3D7 pyrophosphatase-VP1 expressed in baculovirus infected insect cells using sodium pyrophosphate as substrate preincubated for 5 mins followed by substrate addition and measured after 10 mins by spectrophotometry.
Test [3] can be described thus: as §1.
Test [4] relates to Plasmodium falciparum. Kind of test: Antiplasmodial activity against Plasmodium falciparum 3D7 infected in human erythrocytes assessed as growth inhibition after 72 hrs by SYBR Gren-I fluorescent dye based method. As to conditions: 3D7, 72 h. In kind it is functional, organism-based.

Calls of active or inactive are those of the source. No cut-off for these calls is given here.

As usually defined, the inhibition is the drop in the measured response relative to a control, in per cent. What is called IC50 is the concentration that inhibits the measured activity by half. `O=C(O)c1cc(-c2ccccc2[N+](=O)[O-])on1` showed an inhibition in the test on Thermotoga maritima above 50%. Besides, the IC50 in test [1] (read-out: IC50) amounted to 71 µM. In the same order, the values of `CCOC(=O)c1ccc(S(=O)(=O)NC2=NC(=O)CS2)cc1` are above 50% and 120 µM.

As for `Nc1ccc(S(=O)(=O)N2CCCC2C(=O)O)cc1` (stereo not given), the inhibition in the test with Thermotoga maritima is above 50%. For the same compound, the half-inhibitory concentration (IC50) in test [1] (read-out: IC50) was determined as 110 µM. On to `CC(C)(C)c1cc(C(=O)Nc2ccc(S(N)(=O)=O)cc2)cc(C(C)(C)C)c1`, for which, in test [1] (read-out: IC50), the IC50 was 47 µM. On the same count and under the same terms, as for `O=C(Oc1ccccc1Br)c1cnc(-c2ccccc2)s1`, the figure is 48 µM. With `CC(C)(C)c1cc(-c2cc(C(=O)Oc3ccccc3Br)no2)cc(C(C)(C)C)c1`, the inhibition entry with Plasmodium falciparum [2] was “inactive”. Also, the IC50 in test [1] (read-out: IC50) stood at 10 µM. In the case of `CC(C)(C)c1cc(C(=O)Nc2ccccc2Br)cc(C(C)(C)C)c1`, the IC50 in test [1] (read-out: IC50) was 47 µM. Same read-out and setting: as for `O=C(O)c1csc(-c2ccc([N+](=O)[O-])cc2)n1`, the figure is 80 µM. With `CC(C)(C)c1cc(C(=O)NCC(=O)O)cc(C(C)(C)C)c1`, in test [1], the IC50 entry was “Not Active”.

As to `CC(C)(C)c1cc(C(=O)Nc2nc3ccccc3s2)cc(C(C)(C)C)c1`, the IC50 in test [1] (read-out: IC50) was 91 µM.

The compound `O=c1[nH]c2ccc(S(=O)(=O)CCO)cc2o1` registered an inhibition with Thermotoga maritima above 50%. In addition, in test [1] (read-out: IC50), the IC50 was 43 µM.

`Cc1cc(C)cc(-c2cc(C(=O)Nc3ccccc3Br)no2)c1`: the IC50 result in test [1] is “Not Active”.

Turning to `O=C(O)c1cnc(-c2ccccc2)s1`, in test [1] (read-out: IC50), the IC50 was determined as 29 µM.

As to `Cc1nc(-c2cc(C(=O)Oc3ccccc3Br)no2)cs1`, the IC50 in test [1] (read-out: IC50) turned out to be 460 µM. For the compound `O=C(O)c1cc(-c2ccc([N+](=O)[O-])cc2)[nH]n1`, in test [1], the IC50 entry is recorded as “Not Active”. With `CC(C)(C)c1cc(C(=O)Nc2ccc([N+](=O)[O-])cc2)cc(C(C)(C)C)c1`, in test [1] (read-out: IC50), the concentration for half-maximal inhibition (IC50) was found to be 100 µM. Turning to `O=C(O)c1cc(-c2ccccc2)n[nH]1`, the IC50 in test [1] (read-out: IC50) came out at 130 µM. Still for that read-out and setting: as for `Cc1cc(C)cc(-c2cc(C(=O)Oc3ccccc3)no2)c1`, the figure is 26 µM; as for `CC(C)(C)c1cccc(-c2cc(C(=O)Oc3ccccc3Br)no2)c1`, 6.7 µM; as for `CC(C)(C)c1cc(C(=O)NCCCn2ccnc2)cc(C(C)(C)C)c1`, 210 µM.

Regarding `Cc1cccc(-c2cc(C(=O)Oc3ccccc3Br)no2)c1`, the IC50 in test [1] (read-out: IC50) came out at 6.1 µM. Turning to `CC(C)(C)c1cc(C(=O)Nc2nccs2)cc(C(C)(C)C)c1`, the 50% inhibitory concentration (IC50) in test [1] (read-out: IC50) worked out at 39 µM. The same measure, in the same setting: as for `Cc1nc(-c2cc(C(=O)O)no2)cs1`, the figure is 17 µM; as for `CCOC(=O)c1cc(-c2cc(C(C)(C)C)cc(C(C)(C)C)c2)on1`, 72 µM. `CC(C)(C)c1cc(CCC(=O)O)cc(C(C)(C)C)c1`: the IC50 entry in test [1] is recorded as “Not Active”.

On to `Cc1c(-c2cc(C(=O)O)no2)cnn1C`, for which the IC50 result in test [1] is on record as “Not Active”. Turning to `Cc1cc(C)cc(-c2cc(C(=O)Oc3ccccc3Br)no2)c1`, the concentration for half-maximal inhibition (IC50) worked out at 55 µM in test [3], 99 µM with Plasmodium falciparum [4] and 6.9 µM in test [1] (read-out: IC50). As for `CCOC(=O)c1cc(-c2ccc(OC)c(S(=O)(=O)Nc3cccc4c3OCO4)c2)on1`, the IC50 in test [1] (read-out: IC50) was 36 µM.
